# Measurements as given in US9266870B2 (TAISHO PHARMACEUTICAL CO., LTD., priority 2012, dated 2016).
# Experiments:
# [1] = biological target: human orexin-1 receptor (hOX1R) (Homo sapiens (Human), UniProt O43613); experiment: Measurement of orexin antagonistic activity (intracellular Ca2+ fluorescence, FDSS), hOX1R; format: cell-based; conditions: CHO cells forcibly expressing hOX1R; ligand peptide (modified human orexin-A) 300 pM; maximum fluorescence intensity; read-out: IC50 Value OX1
# [2] = biological target: human orexin-2 receptor (hOX2R) (Homo sapiens (Human), UniProt O43614); experiment: Measurement of orexin antagonistic activity (intracellular Ca2+ fluorescence, FDSS), hOX2R; format: cell-based; conditions: CHO cells forcibly expressing hOX2R; ligand peptide (modified human orexin-A) 3 nM; maximum fluorescence intensity; read-out: IC50 Value OX2
# Chain of human orexin-2 receptor (hOX2R) (O43614 whole entry): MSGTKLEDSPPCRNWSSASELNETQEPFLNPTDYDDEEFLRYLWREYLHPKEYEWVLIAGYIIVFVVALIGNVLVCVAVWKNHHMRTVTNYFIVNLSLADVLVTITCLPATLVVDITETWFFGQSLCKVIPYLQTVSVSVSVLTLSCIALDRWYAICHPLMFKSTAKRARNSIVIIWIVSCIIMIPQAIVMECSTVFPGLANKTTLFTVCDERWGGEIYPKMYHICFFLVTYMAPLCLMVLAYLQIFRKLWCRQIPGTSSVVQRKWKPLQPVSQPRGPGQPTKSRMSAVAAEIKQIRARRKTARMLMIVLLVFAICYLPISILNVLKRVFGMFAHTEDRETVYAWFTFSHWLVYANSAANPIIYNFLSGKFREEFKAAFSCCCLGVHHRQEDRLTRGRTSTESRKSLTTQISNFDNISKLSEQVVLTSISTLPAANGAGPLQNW
# Chain of human orexin-1 receptor (hOX1R) (O43613 whole entry): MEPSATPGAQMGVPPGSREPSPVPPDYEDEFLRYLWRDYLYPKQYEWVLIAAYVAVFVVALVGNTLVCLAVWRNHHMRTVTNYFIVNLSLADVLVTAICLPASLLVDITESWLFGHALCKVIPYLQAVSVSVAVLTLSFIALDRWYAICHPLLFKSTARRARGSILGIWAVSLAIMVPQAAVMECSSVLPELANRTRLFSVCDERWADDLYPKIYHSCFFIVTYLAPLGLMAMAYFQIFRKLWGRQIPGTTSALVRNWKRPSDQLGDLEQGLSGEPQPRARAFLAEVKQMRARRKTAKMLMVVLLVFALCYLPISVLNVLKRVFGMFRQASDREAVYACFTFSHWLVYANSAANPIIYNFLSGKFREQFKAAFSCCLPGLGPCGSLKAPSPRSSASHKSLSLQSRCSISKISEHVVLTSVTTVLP
IC50 [1] [nM],IC50 [2] [nM],Structure (SMILES)
60.9,460,"Cc1ccc(-n2nccn2)c(C(=O)N2[C@H](C)CO[C@H]2Cn2cc(-c3ccc(F)cn3)cn2)c1 [Example 8, [(2S,4R)-2-[[4-(5-fluoropyridin-2-yl)-1H-pyrazol-1-yl]-methyl]-4-methyl-1,3-oxazolidin-3-yl] [5-methyl-2-(2H-1,2,3-triazol-2-yl)phenyl] methanone]"
201,273,"Cc1ccc(-n2nccn2)c(C(=O)N2[C@H](Cn3cc(-c4ccc(F)cn4)cn3)OC[C@@H]2C)c1 [Example 10, (−)-[(2S,4S)-2-[[4-(5-fluoropyridin-2-yl)-1H-pyrazol-1-yl]methyl]-4-methyl-1,3-oxazolidin-3-yl] [5-methyl-2-(2H-1,2,3-triazol-2-yl)phenyl] methanone]"
81.2,46.6,"Cc1ccc(-n2nccn2)c(C(=O)N2[C@H](Cn3cc(-c4ccc(F)cn4)cn3)OCC[C@@H]2C)c1 [Example 39, [(2S,4S)-2-{[4-(5-Fluoropyridin-2-yl)-1H-pyrazol-1-yl]methyl}-4-methyl-1,3-oxazinan-3-yl}[5-methyl-2-(2H-1,2,3-triazol-2-yl)phenyl]methanone]"
